{
  "source": "paper PMC4398638",
  "about": "(Bioorganic & medicinal chemistry, 2015)",
  "tested_on": "WI-38 human lung fibroblasts (normal) cell line (FR−)",
  "test": "MTT cytotoxicity assay, WI-38 cells",
  "format": "cell-based",
  "settings": "normal (WI-38, FR−) cells versus FR-overexpressing cancer cells / free drug",
  "data": [
    {"smiles": "CC(=O)O[C@@]12CO[C@@H]1C[C@H](O)[C@@]1(C)C(=O)[C@H](OC(=O)C3CC3)C3=C(C)[C@@H](OC(=O)[C@H](OC(=O)Cc4ccccc4SSC(C)CCC(=O)NCCCOCCOCCOCCCNC(=O)c4ccc(CC5CCCCCc6c5nnn6CCOCCOCCOCCNC(=O)CC[C@H](NC(=O)CC[C@H](NC(=O)c5ccc(NCc6cnc7nc(N)[nH]c(=O)c7n6)cc5)C(=O)O)C(=O)N[C@@H](CCCNC(=N)N)C(=O)O)cc4)[C@H](C=C(C)C)NC(=O)OC(C)(C)C)C[C@@](O)([C@@H](OC(=O)c4ccccc4)[C@H]21)C3(C)C", "note": "(stereo partly shown) [Conjugate 1]", "values": [
      {"measurement": "decrease in cytotoxicity against normal human cells", "value": "> 1,000 fold"}
    ]}
  ]
}
